Measured values published in patent publication US7592336B2, “Hepatitis C virus inhibitors” (Bristol-Myers Squibb Company, priority 2005, dated 2009).
pEC50, pIC50: −log10 of the molar value. Where two headings read alike, the source gives them in different places.

Tests used:
[1] = system: HCV replicon in HUH-7 cells; experiment: HCV replicon FRET assay; type: cell-based, HCV strain 1b; details: Hepatitis C virus
Description: An HCV replicon whole cell system was established as described by Lohmann V, Korner F, Koch J, Herian U, Theilmann L, Bartenschlager R., Science 285(5424):110-3 (1999). This system enabled us to evaluate the effects of our HCV Protease compounds on HCV RNA replication. Briefly, using the HCV strain 1b sequence described in the Lohmann paper (Assession number: AJ238799), an HCV cDNA was synthesized by Operon Technologies, Inc. (Alameda, Calif.), and the full-length replicon was then assembled in plasmid pGem9zf(+) (Promega, Madison, Wis.) using standard molecular biology techniques. The replicon consists of (i) the HCV 5′ UTR fused to the first 12 amino acids of the capsid protein, (ii) the neomycin phosphotransferase gene (neo), (iii) the IRES from encephalomyocarditis virus (EMCV), and (iv) HCV NS3 to NS5B genes and the HCV 3′ UTR. Plasmid DNAs were linearized with ScaI and RNA transcripts were synthesized in vitro using the T7 MegaScript transcription kit (Ambion, Austin, Tex.) according to manufacturer's directions. In vitro transcripts of the cDNA were transfected into the human hepatoma cell line, HUH-7. […] Resulting cell lines were characterized for positive and negative strand RNA production and protein production over time.
The HCV replicon FRET assay was developed to monitor the inhibitory effects of compounds described in the disclosure on HCV viral replication. HUH-7 cells, constitutively expressing the HCV replicon, were grown in Dulbecco's Modified Eagle Media (DMEM) (Gibco-BRL) containing 10% Fetal calf serum (FCS) (Sigma) and 1 mg/ml G418 (Gibco-BRL). Cells were seeded the night before (1.5×10^4 cells/well) in 96-well tissue-culture sterile plates. Compound and no compound controls were prepared in DMEM containing 4% FCS, 1:100 Penicillin/Streptomysin (Gibco-BRL), 1:100 L-glutamine and 5% DMSO in the dilution plate (0.5% DMSO final concentration in the assay). Compound/DMSO mixes were added to the cells and incubated for 4 days at 37° C. After 4 days, cells were first assessed for cytotoxicity using alamar Blue (Trek Diagnotstic Systems) for a CC50 reading. The toxicity of compound (CC50) was determined by adding 1/10th volume of alamar Blue to the media incubating the cells. After 4 h, the fluorescence signal from each well was read, with an excitation wavelength at 530 nm and an emission wavelength of 580 nm, using the Cytofluor Series 4000 (Perspective Biosystems). Plates were then rinsed thoroughly with Phosphate-Buffered Saline (PBS) (3 times 150 μl). The cells were lysed with 25 μl of a lysis assay reagent containing an HCV protease substrate (5× cell Luciferase cell culture lysis reagent (Promega #E153A) diluted to 1× with distilled water, NaCl added to 150 mM final, the FRET peptide substrate (as described for the enzyme assay above) diluted to 10 μM final from a 2 mM stock in 100% DMSO. […]. The plate was then placed into the Cytofluor 4000 instrument which had been set to 340 nm excitation/490 nm emission, automatic mode for 21 cycles and the plate read in a kinetic mode. EC50 determinations were carried out as described for the IC50 determinations.

[2] = target: T1, human neutrophil elastase (HNE) (Homo sapiens, UniProt P08246); experiment: Specificity assay, neutrophil elastase; type: biochemical; details: 2 h enzyme-inhibitor pre-incubation; read-out: HLE activity in the specificity assays (IC50)
T1 construct: purchased Sigma
T1 sequence (P08246 30-267): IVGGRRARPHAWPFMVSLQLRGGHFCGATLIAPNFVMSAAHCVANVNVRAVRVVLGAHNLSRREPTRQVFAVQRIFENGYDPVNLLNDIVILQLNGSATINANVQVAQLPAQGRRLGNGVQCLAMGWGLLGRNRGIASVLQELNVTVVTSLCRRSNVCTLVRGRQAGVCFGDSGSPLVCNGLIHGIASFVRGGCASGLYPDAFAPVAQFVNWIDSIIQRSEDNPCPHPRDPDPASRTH
Protocol: The specificities of compounds of the present disclosure were determined against a variety of serine proteases: human neutrophil elastase (HNE), porcine pancreatic elastase (PPE) and human pancreatic chymotrypsin and one cysteine protease: human liver cathepsin B. In all cases a 96-well plate format protocol using calorimetric p-nitroaniline (pNA) substrate specific for each enzyme was used as described previously (PCT Patent Application No. WO 00/09543) with some modifications to the serine protease assays. All enzymes were purchased from Sigma while the substrates were from Bachem.
Each assay included a 2 h enzyme-inhibitor pre-incubation at room temperature followed by addition of substrate and hydrolysis to 30% conversion as measured on a Spectramax Pro microplate reader. Compound concentrations varied from 100 to 0.4 μM depending on their potency. […]
The percentage of inhibition was calculated using the formula: [1−((UVinh−UVblank)/(UVctl−UVblank))]×100 […]

SMILES: C=C[C@@H]1C[C@]1(NC(=O)[C@@H]1C[C@@](O)(c2ccc(-c3ccccc3)cc2)CN1C(=O)[C@@H](NC(=O)OC(C)(C)C)C(C)(C)C)C(=O)NS(=O)(=O)C1CC1 [Compound 3]
- pEC50 ([1]; 96 h, HUH-7 replicon cells, 4 days, read-out: EC50 in the replicon FRET assay): 7.55
- pEC50 ([1]; Huh-7, HCV replicon cell assay, read-out: Activity Range (EC50)): 6.00 to 8.00
- pIC50 [2]: < 4.00
